Data on two molecules can be found in ChEMBL document CHEMBL1149220, “1-(2-Naphthyl)-1H-pyrazole-5-carboxylamides as potent factor Xa inhibitors. Part 2: A survey of P4 motifs” (Bioorg Med Chem Lett, 2004).

A short description of data set [1]: Volume of distribution in rat. Type of data set: ADME, organism-based. The conditions noted are these: in vivo.
Data set [2] in a line: Clearance rate in rat. The class given is ADME, organism-based. Particulars: in vivo.
Data set [3] is described as follows: Bioavailability in rat. The class given is ADME, organism-based. Particulars: in vivo.
Data set [4] in a line: Half-life determined in rat. The class given is ADME, organism-based. The conditions noted are these: in vivo.
Data set [5] addresses T1, Vitamin K-dependent protein C (Homo sapiens, UniProt P04070). Nature of the data set: Inhibitory concentration of compound was determined against activated protein C.
Data set [6] deals with T2, Coagulation factor X (Homo sapiens, UniProt P00742). Nature of the data set: Inhibitory concentration against human Coagulation factor X.
Data set [7] deals with T2, Coagulation factor X. Nature of the data set: Binding affinity against Coagulation factor X.
The target of data set [8] is T2, Coagulation factor X. Nature of the data set: In vitro anticoagulant potency measured in human plasma by thrombin generation (TG) assay expressed as 2 x TG. The class given is functional, cell-free.
The next data set concerns the target Kallikrein-1 (Homo sapiens, UniProt P06870). The experiment in a line: Inhibitory concentration of compound was determined against kallikrein.
In the next data set the target is Plasminogen. The experiment in a line: Inhibitory concentration of compound was determined against Plasmin.
A further data set has as its target Prothrombin (Homo sapiens, UniProt P00734). Nature of the data set: Inhibitory concentration of compound was determined against thrombin.
For data set [9], the target named is Tissue-type plasminogen activator (Homo sapiens, UniProt P00750). Nature of the data set: Inhibitory concentration against tissue type plasminogen activator.
For another data set, the target named is Serine protease 1 (Homo sapiens, UniProt P07477). Nature of the data set: Inhibitory concentration of compound was determined against trypsin.
For data set [10], the target named is T1, Vitamin K-dependent protein C. Nature of the data set: Inhibitory concentration of compound was determined against activated protein C (aPC).

T2 sequence (P00742 41-179 limits assumed): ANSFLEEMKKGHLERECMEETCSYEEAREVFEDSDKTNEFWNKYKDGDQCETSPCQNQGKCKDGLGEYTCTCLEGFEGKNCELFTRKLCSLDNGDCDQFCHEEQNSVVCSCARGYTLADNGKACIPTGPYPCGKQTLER
T2 sequence (P00742 235-488 limits assumed): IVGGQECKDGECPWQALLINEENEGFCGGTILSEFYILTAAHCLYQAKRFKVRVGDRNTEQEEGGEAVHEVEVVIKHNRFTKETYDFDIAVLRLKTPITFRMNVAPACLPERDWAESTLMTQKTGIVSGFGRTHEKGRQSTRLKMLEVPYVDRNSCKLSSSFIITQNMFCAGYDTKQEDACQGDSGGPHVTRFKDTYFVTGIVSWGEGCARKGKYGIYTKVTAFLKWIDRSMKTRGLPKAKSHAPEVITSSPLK
Serine protease 1, sequence (P07477 whole entry): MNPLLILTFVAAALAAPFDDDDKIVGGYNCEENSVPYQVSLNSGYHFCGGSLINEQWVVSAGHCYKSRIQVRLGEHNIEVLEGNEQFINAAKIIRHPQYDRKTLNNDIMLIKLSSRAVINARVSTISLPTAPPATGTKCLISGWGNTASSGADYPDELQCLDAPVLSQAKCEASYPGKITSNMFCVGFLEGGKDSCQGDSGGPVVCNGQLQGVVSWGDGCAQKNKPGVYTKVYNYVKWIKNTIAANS
Kallikrein-1, sequence (P06870 whole entry): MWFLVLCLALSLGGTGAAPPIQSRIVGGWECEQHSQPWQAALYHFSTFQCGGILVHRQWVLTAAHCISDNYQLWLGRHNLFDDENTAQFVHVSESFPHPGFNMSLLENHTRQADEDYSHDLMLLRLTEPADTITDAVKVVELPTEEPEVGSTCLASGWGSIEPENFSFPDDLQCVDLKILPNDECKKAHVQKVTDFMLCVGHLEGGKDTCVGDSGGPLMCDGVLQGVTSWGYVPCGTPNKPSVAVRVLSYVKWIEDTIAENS
Plasminogen, sequence (Q01177 97-581 limits assumed): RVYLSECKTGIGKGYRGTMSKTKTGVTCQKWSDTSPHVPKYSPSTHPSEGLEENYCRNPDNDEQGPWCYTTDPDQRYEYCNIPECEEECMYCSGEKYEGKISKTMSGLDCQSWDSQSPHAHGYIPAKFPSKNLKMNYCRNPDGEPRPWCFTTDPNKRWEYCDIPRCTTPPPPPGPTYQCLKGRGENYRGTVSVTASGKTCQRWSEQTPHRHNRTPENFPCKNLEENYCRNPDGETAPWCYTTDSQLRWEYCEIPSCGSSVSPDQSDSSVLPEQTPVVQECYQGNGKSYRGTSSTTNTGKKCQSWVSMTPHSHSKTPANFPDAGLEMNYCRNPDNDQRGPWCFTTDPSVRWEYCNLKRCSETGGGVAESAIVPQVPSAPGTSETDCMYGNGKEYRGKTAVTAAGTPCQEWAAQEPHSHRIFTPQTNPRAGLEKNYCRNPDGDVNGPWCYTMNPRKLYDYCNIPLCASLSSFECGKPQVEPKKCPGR
Plasminogen, sequence (Q01177 582-812 limits assumed): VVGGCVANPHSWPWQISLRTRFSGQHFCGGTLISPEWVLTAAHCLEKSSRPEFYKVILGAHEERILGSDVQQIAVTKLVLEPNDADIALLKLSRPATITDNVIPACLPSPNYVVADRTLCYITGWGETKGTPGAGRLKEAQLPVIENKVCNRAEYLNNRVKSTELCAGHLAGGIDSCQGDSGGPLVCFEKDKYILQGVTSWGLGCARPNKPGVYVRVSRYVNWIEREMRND
Tissue-type plasminogen activator, sequence (P00750 whole entry): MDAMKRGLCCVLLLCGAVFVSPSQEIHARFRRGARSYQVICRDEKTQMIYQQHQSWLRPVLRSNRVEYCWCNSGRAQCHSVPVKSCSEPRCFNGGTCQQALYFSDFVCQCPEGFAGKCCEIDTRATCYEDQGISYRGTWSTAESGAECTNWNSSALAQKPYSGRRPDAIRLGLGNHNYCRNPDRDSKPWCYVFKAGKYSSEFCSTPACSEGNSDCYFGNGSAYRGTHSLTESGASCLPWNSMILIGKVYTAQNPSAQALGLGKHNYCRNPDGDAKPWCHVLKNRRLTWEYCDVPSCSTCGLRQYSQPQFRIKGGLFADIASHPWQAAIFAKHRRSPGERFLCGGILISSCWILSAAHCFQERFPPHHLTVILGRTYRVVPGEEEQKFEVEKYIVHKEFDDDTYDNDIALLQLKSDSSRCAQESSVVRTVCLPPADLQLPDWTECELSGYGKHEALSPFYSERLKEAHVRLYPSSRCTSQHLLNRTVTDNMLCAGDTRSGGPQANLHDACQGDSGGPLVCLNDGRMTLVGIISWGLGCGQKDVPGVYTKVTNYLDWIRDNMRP
T1 sequence (P04070 43-197 limits assumed): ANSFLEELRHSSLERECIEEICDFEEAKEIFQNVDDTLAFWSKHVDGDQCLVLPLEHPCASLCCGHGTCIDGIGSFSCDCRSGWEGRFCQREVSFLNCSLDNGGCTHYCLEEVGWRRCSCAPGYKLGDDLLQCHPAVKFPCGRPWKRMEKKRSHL
T1 sequence (P04070 212-461 limits assumed): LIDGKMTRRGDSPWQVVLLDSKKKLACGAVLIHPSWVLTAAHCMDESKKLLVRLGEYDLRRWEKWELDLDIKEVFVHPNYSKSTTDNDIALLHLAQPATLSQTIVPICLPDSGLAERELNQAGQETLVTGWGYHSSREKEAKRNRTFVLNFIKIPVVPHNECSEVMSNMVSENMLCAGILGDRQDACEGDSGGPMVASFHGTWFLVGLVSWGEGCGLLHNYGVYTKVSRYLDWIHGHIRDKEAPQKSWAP

In turn, `Cc1cc(C(=O)Nc2ccc(N3CCOCC3=O)cc2F)n(-c2cc3ccccc3cc2S(C)(=O)=O)n1` returned a Vd in data set [1] of 0.8 L/kg. Further, the clearance in [2] worked out at 16.8 mL/min/kg. Further, the bioavailability in data set [3] was determined as 19.3%. Also, the half-life in data set [4] was 0.5 h. Also, the IC50 in [5] was greater than 10 µM; on Coagulation factor X [6] it was 0.002 µM; against Kallikrein-1 it was greater than 10 µM; on Plasminogen it was greater than 10 µM; against Prothrombin it was greater than 10 µM; in [9], greater than 10 µM. The IC50 against Serine protease 1 was greater than 10 µM. At Coagulation factor X [7], this molecule yielded a Ki of 0.0008 µM. This molecule also returned an Activity on Coagulation factor X [8] of 0.44 µM.

In [1], `Cc1cc(C(=O)Nc2ccc(-c3ccccc3CN(C)C)cc2F)n(-c2cc3ccccc3cc2S(C)(=O)=O)n1` displayed a Vd of 27.3 L/kg. Besides, in [2], the clearance was found to be 114 mL/min/kg. In data set [3], this molecule returned a bioavailability of 18%. In [4], this molecule had a half-life of 2.8 h. The IC50 was greater than 10 µM in [10]; 0.007 µM on Coagulation factor X [6]; greater than 10 µM against Kallikrein-1; greater than 10 µM against Plasminogen; greater than 10 µM against Prothrombin; greater than 10 µM in [9]. For the same molecule, on Serine protease 1, the IC50 was greater than 10 µM. Moreover, the Ki at Coagulation factor X [7] came to 0.0024 µM. Besides, the Activity on Coagulation factor X [8] was 0.64 µM.
